Test results as given in patent US12036267B2 (BICT S.R.L., priority 2017, dated 2024).

Experiments:
[1] = system: S. aureus; assay: Antimicrobial activity (MIC / FIC index) of extracts and nisin; format: cell-based; details: nisin alone
Method: (§1) The antimicrobial activity of the composition according to the invention has been assessed in relation to gram-positive and gram-negative bacteria, as well as fungi and yeast, by means of in vitro susceptibility testing with the antimicrobial dilution method (CLSI protocols—Clinical and Laboratory Standards Institute), as a result of which the MIC (Minimum Inhibitory Concentration) was determined for each of the microorganisms in question.
(§2) For all the tests carried out, a positive control for the antimicrobial activity was carried out by using fluconazole (for fungi and yeasts) and ceftriaxone (for bacterial strains) and a negative control (no compounds) in which the correct microbial growth was assessed.
(§3) The FIC index is determined using the following formula:
(§4) FIC Index>1=> no synergistic effect
(§5) In this example, the antimicrobial activity of the individual natural extracts was first assessed as follows:
(§6) The antimicrobial activity of the individual natural extracts was then assessed in association with the composition according to the invention in Example 8:
(§7) The interaction of the composition in Example 8 with other natural antimicrobial peptides, such as nisin, was assessed.
(§8) After determining the antimicrobial activity of nisin alone, the antimicrobial activity of nisin was assessed in association with the composition according to the invention: […]

[2] = system: E. coli; assay: as above; format: cell-based; details: nisin alone
Method: as §1, §2, §3, §4, §5, §6, §7, §8

For nisin, the MIC [1] was “S. aureus - 17 UI/ml” and the MIC [2] was “E. coli - 18750 UI/ml”.
